Results from ChEMBL document CHEMBL1955803, “Preclinical in vivo evaluation of efficacy, pharmacokinetics, and pharmacodynamics of a novel MEK1/2 kinase inhibitor RO5068760 in multiple tumor models” (Mol Cancer Ther, 2010).
Calls of active or inactive are those of the source. No cut-off for these calls is given here.

Key:
[1] = Plasma concentration in human LOX cells expressing B-Raf V600E mutant xenografted nude mouse at 100 mg/kg, po after 1 hr; type: ADME, organism-based; set-up: dose 100 mg/kg, route oral
MIA PaCa-2 [2] = experiment: Antitumor activity against human MIAPaCa2 cells expressing K-Ras G12C mutant xenografted in nude mouse assessed as tumor growth inhibition at 500 mg/kg, po administered weekly once; type: functional; conditions: read-out: GI
[3] = biological target: T1, Dual specificity mitogen-activated protein kinase kinase 1 (Homo sapiens, UniProt Q02750); experiment: Inhibition of MEK1 in human HT-29 cells assessed as inhibition of ERK phosphorylation by Western blot analysis; type: cell-based
T1 sequence (Q02750 whole entry): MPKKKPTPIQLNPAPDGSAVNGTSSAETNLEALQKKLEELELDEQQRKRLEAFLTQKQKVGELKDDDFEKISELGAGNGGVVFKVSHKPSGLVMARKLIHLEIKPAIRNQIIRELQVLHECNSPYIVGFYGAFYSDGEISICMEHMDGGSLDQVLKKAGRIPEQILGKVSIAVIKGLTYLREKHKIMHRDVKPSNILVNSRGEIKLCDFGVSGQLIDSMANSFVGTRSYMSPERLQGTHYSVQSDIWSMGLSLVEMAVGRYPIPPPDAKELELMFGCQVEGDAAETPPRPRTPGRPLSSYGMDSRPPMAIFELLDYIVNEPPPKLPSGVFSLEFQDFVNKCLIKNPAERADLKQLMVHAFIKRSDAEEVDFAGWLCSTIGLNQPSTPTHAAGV

[4] = Antitumor activity against human LOX cells expressing B-Raf V600E mutant xenografted in nude mouse assessed as tumor growth inhibition at 12.5 mg/kg, po bid; type: functional; conditions: read-out: GI
Mus musculus [5] = experiment: Average drug concentration in human HT-29 cells expressing B-Raf V600E mutant xenografted nude mouse plasma at 50 mg/kg, po bid; type: ADME, organism-based; set-up: dose 50 mg/kg, route oral; conditions: in vivo
Mus musculus [6] = experiment: Inhibition of MEK-mediated ERK phosphorylation in po dosed human LOX cells expressing B-Raf V600E mutant xenografted nude mouse plasma by Western blot analysis; type: functional, organism-based
[7] = AUC (0 to 12 hrs) in human H460 cells expressing K-Ras Q61H mutant xenografted nude mouse at 25 mg/kg, po bid; type: ADME, organism-based; set-up: time < 12 hr, dose 25 mg/kg, route oral; conditions: in vivo
HT-29 [8] = experiment: Growth inhibition of human HT-29 cells expressing B-Raf V600E mutant by MTT assay; type: functional, cell-based
HT-29 [9] = experiment: Antitumor activity against human HT-29 cells expressing B-Raf V600E mutant xenografted in nude mouse assessed as tumor growth inhibition at 50 mg/kg, po bid; type: functional; conditions: read-out: GI
MIA PaCa-2 [10] = experiment: Antitumor activity against human MIAPaCa2 cells expressing K-Ras G12C mutant xenografted in nude mouse assessed as tumor growth inhibition at 25 mg/kg, po bid; type: functional; conditions: read-out: GI
NCI-H460 = experiment: Antitumor activity against human H460 cells expressing K-Ras Q61H mutant xenografted in nude mouse assessed as tumor growth inhibition at 200 mg/kg, po bid; type: functional; conditions: read-out: GI
Mus musculus [11] = experiment: Inhibition of MEK-mediated ERK phosphorylation in po dosed human LOX cells expressing B-Raf V600E mutant xenografted nude mouse tumor by Western blot analysis; type: functional, organism-based
[12] = biological target: T1, Dual specificity mitogen-activated protein kinase kinase 1; experiment: Inhibition of MEK1 in human MIA PaCa-2 cells assessed as inhibition of ERK phosphorylation by Western blot analysis; type: cell-based
[13] = biological target: T2, Dual specificity mitogen-activated protein kinase kinase; MEK1/2 (Homo sapiens) (UniProt P36507+Q02750); conditions: HT-29, 2 to 10 uM
T2 sequence (P36507 whole entry, looked up): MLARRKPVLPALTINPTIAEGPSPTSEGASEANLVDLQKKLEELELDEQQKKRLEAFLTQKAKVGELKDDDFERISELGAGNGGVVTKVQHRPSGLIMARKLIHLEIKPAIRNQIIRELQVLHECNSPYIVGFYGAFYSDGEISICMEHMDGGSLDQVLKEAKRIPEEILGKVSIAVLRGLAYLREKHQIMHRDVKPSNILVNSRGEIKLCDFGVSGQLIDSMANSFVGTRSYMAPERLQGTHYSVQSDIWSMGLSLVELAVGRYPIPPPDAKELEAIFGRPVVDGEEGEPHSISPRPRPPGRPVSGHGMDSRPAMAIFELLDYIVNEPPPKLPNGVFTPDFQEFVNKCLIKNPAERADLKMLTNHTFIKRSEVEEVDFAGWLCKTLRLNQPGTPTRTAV
T2 sequence (Q02750 whole entry, looked up): as the sequence (Q02750 whole entry) above
Description: Inhibition of MEK1/2 in human HT-29 cells assessed as inhibition of ERK1/2 phosphorylation at 2 to 10 uM by Western blot analysis

[14] = Antitumor activity against human LOX cells expressing B-Raf V600E mutant xenografted in nude mouse assessed as tumor growth inhibition at 200 mg/kg, po bid; type: functional; conditions: read-out: GI
[15] = Cmax in human H460 cells expressing K-Ras Q61H mutant xenografted nude mouse at 100 mg/kg, po bid; type: ADME, organism-based; set-up: dose 100 mg/kg, route oral; conditions: in vivo
Mus musculus [16] = experiment: Toxicity in human HT-29 cells expressing B-Raf V600E mutant xenografted nude mouse assessed as gross signs of adverse effect at 25 to 100 mg/kg, po bid for 3 weeks; type: organism-based; set-up: dose 25-100 mg/kg, route oral; conditions: in vivo, 504 h
Mus musculus [17] = experiment: Toxicity in human H460 cells expressing K-Ras Q61H mutant xenografted nude mouse assessed as gross signs of adverse effect at 500 mg/kg, po administered weekly once for 3 weeks; type: organism-based; set-up: dose 500 mg/kg, route oral; conditions: in vivo, 504 h
[18] = biological target: T2, Dual specificity mitogen-activated protein kinase kinase; MEK1/2 (Homo sapiens); conditions: HT-29, 2 to 10 uM; remark: listed apart in the source
Description: Inhibition of MEK1/2 in human HT-29 cells assessed as down regulation of CDK4/cyclin D1 expression at 2 to 10 uM by Western blot analysis

Mus musculus [19] = experiment: Average drug concentration in human LOX cells expressing B-Raf V600E mutant xenografted nude mouse plasma at 12.5 mg/kg, po bid; type: ADME, organism-based; set-up: dose 12.5 mg/kg, route oral; conditions: in vivo
Mus musculus [20] = experiment: Average drug concentration in human H460 cells expressing K-Ras Q61H mutant xenografted nude mouse plasma at 50 mg/kg, po bid; type: ADME, organism-based; set-up: dose 50 mg/kg, route oral; conditions: in vivo
Mus musculus [21] = experiment: Inhibition of MEK-mediated ERK phosphorylation in tumor of human LOX cells expressing B-Raf V600E mutant xenografted nude mouse at 100 mg/kg, po after 12 hrs by Western blot analysis relative to control; type: functional
Mus musculus [22] = experiment: Inhibition of MEK-mediated ERK phosphorylation in tumor of human HT-29 cells expressing B-Raf V600E mutant xenografted nude mouse at 100 mg/kg, po after 12 hrs by Western blot analysis relative to control; type: functional; conditions: HT-29, 12 h
[23] = biological target: T2, Dual specificity mitogen-activated protein kinase kinase; MEK1/2 (Homo sapiens); conditions: HT-29, 2 to 10 uM; remark: listed apart in the source
Description: Inhibition of MEK1/2 in human HT-29 cells assessed as upregulation of p27 expression at 2 to 10 uM by Western blot analysis

[24] = AUC (0 to 12 hrs) in human MIAPaCa2 cells expressing K-Ras G12C mutant xenografted nude mouse at 25 mg/kg, po bid; type: ADME, organism-based, MIA PaCa-2; set-up: time < 12 hr, dose 25 mg/kg, route oral; conditions: in vivo
[25] = AUC (0 to 12 hrs) in human LOX cells expressing B-Raf V600E mutant xenografted nude mouse at 12.5 mg/kg, po bid; type: ADME, organism-based; set-up: time < 12 hr, dose 12.5 mg/kg, route oral; conditions: in vivo
HT-29 [26] = experiment: Reversible growth inhibition of human HT-29 cells expressing B-Raf V600E mutant measured up to 3 days by MTT assay; type: functional, cell-based
[27] = Antitumor activity against human LOX cells expressing B-Raf V600E mutant xenografted in nude mouse assessed as tumor growth inhibition at 25 mg/kg, po bid; type: functional; conditions: read-out: GI
[28] = biological target: T1, Dual specificity mitogen-activated protein kinase kinase 1; experiment: Inhibition of MEK1 in human LOX cells assessed as inhibition of ERK phosphorylation by Western blot analysis; type: cell-based
[29] = Drug level in human LOX cells expressing B-Raf V600E mutant xenografted nude mouse tumor at 100 mg/kg, po after 8 hrs; type: ADME, organism-based, Neoplasm; set-up: dose 100 mg/kg, route oral; conditions: read-out: Drug uptake
HT-29 [30] = experiment: Antitumor activity against human HT-29 cells expressing B-Raf V600E mutant xenografted in nude mouse assessed as tumor growth inhibition at 25 mg/kg, po bid; type: functional; conditions: read-out: GI
Mus musculus [31] = experiment: Inhibition of MEK-mediated ERK phosphorylation in tumor of human LOX cells expressing B-Raf V600E mutant xenografted nude mouse at 100 mg/kg, po after 8 hrs by Western blot analysis relative to control; type: functional
[32] = Antitumor activity against human LOX cells expressing B-Raf V600E mutant xenografted in nude mouse assessed as tumor growth inhibition at 100 mg/kg, po bid; type: functional; conditions: read-out: GI
[33] = Cmax in human MIAPaCa2 cells expressing K-Ras G12C mutant xenografted nude mouse at 25 mg/kg, po bid; type: ADME, organism-based, MIA PaCa-2; set-up: dose 25 mg/kg, route oral; conditions: in vivo
[34] = Drug level in human HT-29 cells expressing B-Raf V600E mutant xenografted nude mouse tumor at 100 mg/kg, po after 4 hrs; type: ADME, organism-based, Neoplasm; set-up: dose 100 mg/kg, route oral; conditions: read-out: Drug uptake
[35] = Cmax in human MIAPaCa2 cells expressing K-Ras G12C mutant xenografted nude mouse at 200 mg/kg, po qd; type: ADME, organism-based, MIA PaCa-2; set-up: dose 200 mg/kg, route oral; conditions: in vivo
[36] = Drug level in human LOX cells expressing B-Raf V600E mutant xenografted nude mouse tumor at 100 mg/kg, po after 2 hrs; type: ADME, organism-based, Neoplasm; set-up: dose 100 mg/kg, route oral; conditions: read-out: Drug uptake
[37] = Cmax in human HT-29 cells expressing B-Raf V600E mutant xenografted nude mouse at 50 mg/kg, po bid; type: ADME, organism-based; set-up: dose 50 mg/kg, route oral; conditions: in vivo

`C[C@@H](c1ccccc1)[C@@H](C(=O)Nc1ccc(I)cc1F)N1C(=O)N[C@H](c2ccc(OC[C@H](O)CO)cc2)C1=O` showed a concentration at 1 h [1] of 4840 ng/mL, an inhibition in vivo at 500 mg/kg (MIA PaCa-2 [2]) of 42% and an IC50 [3] of 12 nM. It also gave an inhibition in vivo at 12.5 mg/kg [4] of 99%, a Cave (Mus musculus [5]) of 609 ng/mL and an EC50 (Mus musculus [6]) of 1360 nM. The AUC at 12 h [7] was 8800 ng·h/mL, the IC50 (HT-29 [8]) was 110 nM and the IC90 (HT-29 [8]) was 560 nM. For the same molecule, the “growth inhibition (GI)” value (HT-29 [8]; TDE = time-dependent effect) was “tde”, the inhibition in vivo at 50 mg/kg (HT-29 [9]) was 75% and the inhibition in vivo at 25 mg/kg (MIA PaCa-2 [10]) was 71%. The inhibition in vivo at 200 mg/kg (NCI-H460) was 80%, the EC50 (Mus musculus [11]) was 928 ng/g and the IC50 [12] was 69 nM. For the same molecule, the inhibition [13] was “Active”, the inhibition in vivo at 200 mg/kg [14] was greater than 100% and the Cmax [15] was 16900 ng/mL. The Activity (Mus musculus [16]) was “Non-toxic”, the Activity (Mus musculus [17]) was “Non-toxic” and the inhibition [18] was “Active”. The Cave (Mus musculus [19]) was 388 ng/mL, the Cave (Mus musculus [20]) was 1942 ng/mL and the inhibition in vivo at 100 mg/kg (Mus musculus [21]) was 12%. The inhibition in vivo at 100 mg/kg (Mus musculus [22]) was 0%, the inhibition [23] was “Active” and the AUC at 12 h [24] was 12700 ng·h/mL. For the same molecule, the AUC at 12 h [25] was 4660 ng·h/mL, the Activity (HT-29 [26]) was “Active” and the inhibition in vivo at 25 mg/kg [27] was greater than 100%. For the same molecule, the IC50 [28] was 22 nM, the concentration at 8 h [29] was 1160 ng/g and the inhibition in vivo at 25 mg/kg (HT-29 [30]) was 65%. The inhibition in vivo at 100 mg/kg (Mus musculus [31]) was 48%, the inhibition in vivo at 100 mg/kg [32] was greater than 100% and the Cmax [33] was 3960 ng/mL. For the same molecule, the concentration at 4 h [34] was 945 ng/g, the Cmax [35] was 15500 ng/mL and the concentration at 2 h [36] was 3040 ng/g. It also gave a Cmax [37] of 1300 ng/mL.
